The record followed here is patent US7737127B2, “2-propynyl adenosine analogs having A2A agonist activity and compositions thereof” (University of Virginia Patent Foundation, priority 2001, dated 2010).

In one test the test system is human neutrophils. Description: Human neutrophil oxidative activity, luminol-enhanced chemiluminescence. The format is cell-based. The following applies: for PMN oxid + roli (-log EC50): human neutrophil experiment w/Rolipram; for PMN oxid (-log EC50) / EC50: human neutrophil experiment w/o Rolipram; for EC50: Homo sapiens, Neutrophil, read-out: PMN oxid (-log EC50) (converted). On the procedure: Chemiluminescence Methods: Lumninol enhanced chemiluminescence, a measure of neutrophil oxidative activity, is dependent upon both superoxide production and mobilization of the granule enzyme myeloperoxidase. The light is emitted from unstable high-energy oxygen species such as hypochlorous acid and singlet oxygen generated by activated neutrophils.
The plate was incubated 5 min (37 C) and then fMLP (50 l in HA; final concentration […]) was added to all wells.
Data are presented as peak chemiluminescence as percent of activity in the absence of an adenosine agonist. The EC50 was determined using PRISM software. All compounds were tested with PMNs from three separate donors.
Lummol-enhanced chemiluminescence, a measure of neutrophil oxidative activity, is dependent upon both superoxide production and mobilization of the lysosomal granule enzyme myeloperoxidase. The light is emitted from unstable high-energy oxygen species generated by activated neutrophils. Purified neutrophils (5-10×10^5/ml) were incubated in Hanks balanced salt solution containing 0.1% human serum albumin (1 ml) with the tested A2A agonist with or without rolipram and with or without tumor necrosis factor-alpha (1 U/ml) for 30 minutes at 37° C. in a shaking water bath. […] Chemiluminescence is reported as relative peak light emitted (=height of the curve) compared to samples with tumor necrosis factor-alpha and without agonist or rolipram.

In the next test the target is T1, human A1 AR (Homo sapiens, UniProt P30542).
T1 sequence (P30542 1-326): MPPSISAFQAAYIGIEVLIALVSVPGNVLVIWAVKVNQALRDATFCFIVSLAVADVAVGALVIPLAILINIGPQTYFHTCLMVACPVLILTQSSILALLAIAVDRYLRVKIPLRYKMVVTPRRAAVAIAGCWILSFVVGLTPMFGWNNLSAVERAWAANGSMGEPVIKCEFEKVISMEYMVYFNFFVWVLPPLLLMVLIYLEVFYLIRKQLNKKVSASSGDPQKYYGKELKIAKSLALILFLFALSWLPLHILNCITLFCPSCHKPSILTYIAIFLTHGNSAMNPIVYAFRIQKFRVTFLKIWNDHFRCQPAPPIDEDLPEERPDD
Description: Radioligand competition binding (125I-ABA) to human A1 AR in CHO K1 cell membranes. The following applies: for Ki: A1 ± SEM, Ki from competition binding, 125I-ABA, CHO K1 cell membranes; for A1/A2A: selectivity ratio A1 over A2A.

Another test addresses T2, A3 AR (Homo sapiens, UniProt P0DMS8).
T2 sequence (P0DMS8 1-318): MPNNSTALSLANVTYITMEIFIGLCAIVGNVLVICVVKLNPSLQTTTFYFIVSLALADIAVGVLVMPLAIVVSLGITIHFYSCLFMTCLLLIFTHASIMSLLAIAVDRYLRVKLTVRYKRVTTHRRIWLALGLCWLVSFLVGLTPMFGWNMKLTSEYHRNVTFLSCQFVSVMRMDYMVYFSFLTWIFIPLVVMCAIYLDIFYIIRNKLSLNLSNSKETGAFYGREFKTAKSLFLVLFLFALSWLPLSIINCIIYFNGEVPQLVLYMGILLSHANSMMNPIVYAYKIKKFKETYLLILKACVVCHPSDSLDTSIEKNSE
Put plainly: Radioligand competition binding (125I-ABA) to human A3 AR in HEK 293 cell membranes. The following applies: for Ki: A3 ± SEM, Ki from competition binding, 125I-ABA, HEK 293 cell membranes; for A3/A2A: selectivity ratio A3 over A2A.

The target of test [1] is recombinant human A2A receptors (Homo sapiens, UniProt P29274). Description: Radioligand competition binding to recombinant human A2A receptors in Sf9 cell membranes. The following applies: A2A ± SEM, Ki from competition binding, Sf9 cell membranes. A general note: Loss of bound radioactivity is the signal in a displacement assay; it reports binding, not function.
recombinant human A2A receptors, sequence (P29274 whole entry): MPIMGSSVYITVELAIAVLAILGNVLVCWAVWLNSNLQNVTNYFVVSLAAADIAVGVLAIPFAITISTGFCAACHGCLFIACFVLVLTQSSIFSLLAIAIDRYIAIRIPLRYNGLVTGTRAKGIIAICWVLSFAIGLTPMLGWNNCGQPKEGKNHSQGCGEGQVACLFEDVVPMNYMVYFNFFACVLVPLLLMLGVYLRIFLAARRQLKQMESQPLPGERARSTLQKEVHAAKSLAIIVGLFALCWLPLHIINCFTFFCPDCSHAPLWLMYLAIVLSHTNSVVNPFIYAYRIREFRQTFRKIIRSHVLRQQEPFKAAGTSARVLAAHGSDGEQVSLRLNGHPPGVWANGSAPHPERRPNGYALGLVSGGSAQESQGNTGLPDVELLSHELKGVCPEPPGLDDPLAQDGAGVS
Description: (§1) Sf9 cells were cultured in Grace's medium supplemented with 10% fetal bovine serum, 2.5 μg/ml amphotericin B and 50 μg/ml gentamycin in an atmosphere of 50% N2/50% O2. […] Infected cells were harvested 3 days post-infection and washed twice in insect PBS (PBS pH 6.3). Cells were then resuspended in lysis buffer (20 mM HEPES pH 7.5, 150 mM NaCl, 3 mM MgCl2, 1 mM β-mercaptoethanol (BME), 5 μg/mL leupeptin, 5 μg/mL pepstatin A, 1 μg/mL aprotinin, and 0.1 mM PMSF) and snap frozen for storage at −80° C. Cells were thawed on ice, brought to 30 mL total volume in lysis buffer, and burst by N2 cavitation (600 psi for 20 minutes). A low-speed centrifugation was performed to remove any unlysed cells (1000×g for 10 minutes), followed by a high-speed centrifugation (17,000×g for 30 minutes). The pellet from the final centrifugation was homogenized in buffer containing 20 mM HEPES pH 8, 100 mM NaCl, 1% glycerol, 2 μg/mL leupeptin, 2 μg/mL pepstatin A, 2 μg/mL Aprotinin, 0.1 mM PMSF, and 10 μM GDP using a small glass homogenizer followed by passage through a 26 gauge needle. Membranes were aliquoted, snap frozen in liquid N2, and stored at −80° C.
(§2) Binding experiments were performed in triplicate with 5 μg (A2A) or 25 μg (A1 and A3) membrane protein in a total volume of 0.1 mL HE buffer (20 mM HEPES and 1 mM EDTA) with 1 U/mL adenosine deaminase and 5 mM MgCl2 with or without 50 μM GTPγS. Membranes were incubated with radioligands at room temperature for three hours (for agonists) or two hours (for antagonists) in Millipore Multiscreene® 96-well GF/C filter plates and assays were terminated by rapid filtration on a cell harvester (Brandel, Gaithersburg, Md.) followed by 4×150 μl washes over 30 seconds with ice cold 10 mM Tris-HCl, pH 7.4, 10 mM MgCl2.

One may read the Ki as a measure of affinity in units of concentration, obtained from inhibition or displacement. The EC50 is the concentration at which the effect is half-maximal.

Description for human A1 AR: as §1, §2

As to `CCNC(=O)[C@H]1O[C@@H](n2cnc3c(N)nc(C#CC4(O)CCCCC4C)nc32)C(O)C1O` (single isomer, unassigned) [JR-3177B, 5-[6-Amino-2-(1-hydroxy-2-methyl-cyclohexylethynyl)-purin-9-yl]-3,4-dihydroxytetrahydrofuran-2-carboxylic acid ethylamide], in the test with human neutrophils, the “PMN oxid + roli (-log EC50)” value was determined as 9.45 and the “PMN oxid (-log EC50)” value is recorded as 8.5. Moreover, on human A1 AR, the affinity, expressed as Ki, was 15.5 ± 0.7 nM and the A1/A2A was found to be 23.1. Further, on A3 AR, the inhibition constant (Ki) amounted to 7.5 ± 4.5 nM and the A3/A2A is recorded as 11.2. The Ki in test [1] came out at 0.7 ± 0.07 nM.
As for `CCNC(=O)[C@H]1O[C@@H](n2cnc3c(N)nc(C#CC4(O)CCCCC4C)nc32)C(O)C1O` (single isomer, unassigned) [JR-3181A, 5-[6-Amino-2-(1-hydroxy-2-methyl-cyclohexylethynyl)-purin-9-yl]-3,4-dihydroxytetrahydrofuran-2-carboxylic acid ethylamide], in the test with human neutrophils, the “PMN oxid + roli (-log EC50)” value is recorded as 8.77 and the “PMN oxid (-log EC50)” value amounted to 7.73. For the same compound, at human A1 AR, the Ki amounted to 44.9 ± 17.2 nM and the A1/A2A was found to be 38.1. Also, on A3 AR, the Ki is 69.7 ± 43 nM and the A3/A2A is 59.1. Besides, the Ki in test [1] is 1.2 ± 0.15 nM.
On to `CCNC(=O)[C@H]1O[C@@H](n2cnc3c(N)nc(C#CC4(O)CCCCC4C)nc32)C(O)C1O` (single isomer, unassigned) [JR-3181B, 5-[6-Amino-2-(1-hydroxy-2-methyl-cyclohexylethynyl)-purin-9-yl]-3,4-dihydroxytetrahydrofuran-2-carboxylic acid ethylamide], for which, in the test on human neutrophils, the “PMN oxid + roli (-log EC50)” value came to 9.67 and the “PMN oxid (-log EC50)” value worked out at 8.57. In addition, on human A1 AR, the affinity corresponds to a Ki of 24.2 ± 6.2 nM and the A1/A2A is listed as 36.1. Also, at A3 AR, the affinity corresponds to a Ki of 38.9 ± 4.8 nM and the A3/A2A was 58.1. Moreover, the Ki in test [1] came out at 0.7 ± 0.07 nM.
Take `CCNC(=O)[C@H]1O[C@@H](n2cnc3c(N)nc(C#CC4(O)CCCCNC4=O)nc32)C(O)C1O` (single isomer, unassigned) [JR-3243A, 5-[6-Amino-2-(3-hydroxy-2-oxo-azepan-3-ylethynyl)purin-9-yl]-3,4-dihydroxytetrahydrofuran-2-carboxylic acid ethylamide]: in the test with human neutrophils, the “PMN oxid + roli (-log EC50)” value is 7.65 and the “PMN oxid (-log EC50)” value came to 6.42. At human A1 AR, the Ki is 29.6 ± 4.8 nM and the A1/A2A worked out at 2.5. Moreover, on A3 AR, the Ki was determined as 31.1 ± 7.2 nM and the A3/A2A came out at 2.6. Besides, the Ki in test [1] was determined as 11.9 ± 1.3 nM.
With `CCNC(=O)[C@H]1O[C@@H](n2cnc3c(N)nc(C#CC4(O)CCCCNC4=O)nc32)C(O)C1O` (single isomer, unassigned) [JR-3243B, 5-[6-Amino-2-(3-hydroxy-2-oxo-azepan-3-ylethynyl)purin-9-yl]-3,4-dihydroxytetrahydrofuran-2-carboxylic acid ethylamide], in the test with human neutrophils, the “PMN oxid + roli (-log EC50)” value is on record as 8.91 and the “PMN oxid (-log EC50)” value turned out to be 7.81. Moreover, on human A1 AR, the affinity, expressed as Ki, was 12 ± 5 nM and the A1/A2A was found to be 5.3. On A3 AR, the inhibition constant (Ki) was found to be 3.34 ± 0.48 nM and the A3/A2A turned out to be 1.5. Also, the Ki in test [1] came to 2.25 ± 0.35 nM.
As to `CCNC(=O)[C@H]1O[C@@H](n2cnc3c(N)nc(C#CCC4CCC(C(=O)O)CC4)nc32)C(O)C1O` (stereo in doubt) [ATL-146a, 4-{3-[6-Amino-9-(5-ethylcarbamoyl-3,4-dihydroxytetrahydrofuran-2-yl)-9H-purin-2-yl]-prop-2-ynyl}-cyclohexanecarboxylic acid], in the test with human neutrophils, the EC50 is 912 nM and the “PMN oxid + roli (-log EC50)” value came to 7.72. Further, at human A1 AR, the Ki came out at 189 ± 19 nM and the A1/A2A is given as 6.4. Further, at A3 AR, the inhibitory constant (Ki) was 29 ± 10 nM and the A3/A2A was determined as 1.0. In test [1], the Ki is 29.6 ± 1.2 nM.
Turning to `CCNC(=O)[C@H]1O[C@@H](n2cnc3c(N)nc(C#CCC4CCC(COC(C)=O)CC4)nc32)C(O)C1O` (stereo in doubt) [ATL-193, Acetic acid 4-{3-[6-amino-9-(5-ethylcarbamoyl-3,4-dihydroxytetrahydrofuran-2-yl)-9H-purin-2-yl]-prop-2-ynyl}-cyclohexylmethyl ester], in the test on human neutrophils, the half-maximal effective concentration (EC50) was 3.09 nM and the “PMN oxid + roli (-log EC50)” value stood at 9.46. In addition, on human A1 AR, the Ki is 71 ± 14 nM and the A1/A2A is on record as 64.5. Moreover, on A3 AR, the Ki came out at 231 ± 91 nM and the A3/A2A worked out at 210.0. For the same compound, in test [1], the inhibition constant Ki turned out to be 1.1 ± 0.2 nM.
As to `CCNC(=O)[C@H]1O[C@@H](n2cnc3c(N)nc(C#CCC4CCC(CO)CC4)nc32)C(O)C1O` (stereo in doubt) [ATL-2037, 5-{6-Amino-2-[3-(4-hydroxymethyl-cyclohexyl)-prop-1-ynyl]-purin-9-yl}-3,4-dihydroxytetrahydrofuran-2-carboxylic acid ethylamide], in the test with human neutrophils, the 50% effective concentration (EC50) is 32.4 nM and the “PMN oxid + roli (-log EC50)” value is on record as 8.7. Further, at human A1 AR, the affinity corresponds to a Ki of 19 ± 1 nM and the A1/A2A is 12.6. Further, at A3 AR, the Ki came to 76 ± 6 nM and the A3/A2A worked out at 50.3. In addition, in test [1], the inhibitory constant (Ki) stood at 1.5 ± 0.01 nM.
For the compound `CCNC(=O)[C@H]1O[C@@H](n2cnc3c(N)nc(C#CCC4CCC(C(=O)OCCNC(=O)OC(C)(C)C)CC4)nc32)C(O)C1O` (stereo in doubt) [JR-3021, 4-{3-[6-Amino-9-(5-ethylcarbamoyl-3,4-dihydroxy-tetrahydrofuran-2-yl)-9H-purin-2-yl]-prop-2-ynyl}-cyclohexanecarboxylic acid 2-tert-butoxycarbonylamino-ethyl ester], in the test with human neutrophils, the 50% effective concentration (EC50) was 26.3 nM and the “PMN oxid + roli (-log EC50)” value stood at 8.58. On human A1 AR, the Ki turned out to be 107 ± 10 nM and the A1/A2A is on record as 66.9. Moreover, at A3 AR, the affinity corresponds to a Ki of 41 ± 1 nM and the A3/A2A worked out at 25.6. In addition, the Ki in test [1] is 1.6 ± 0.5 nM.
For the compound `CCNC(=O)[C@H]1O[C@@H](n2cnc3c(N)nc(C#CCC4CCC(CN(C)C)CC4)nc32)C(O)C1O` (stereo in doubt) [JR-3023, 5-{6-Amino-2-[3-(4-dimethylaminomethyl-cyclohexyl)-prop-1-ynyl]-purin-9-yl}-3,4-dihydroxytetrahydrofuran-2-carboxylic acid ethylamide], in the test on human neutrophils, the EC50 was 42.7 nM and the “PMN oxid + roli (-log EC50)” value stood at 8.66. Further, on human A1 AR, the affinity corresponds to a Ki of 14 ± 0.8 nM and the A1/A2A worked out at 3.7. On A3 AR, the Ki was determined as 61 ± 6 nM and the A3/A2A was 16.3. For the same compound, in test [1], the inhibitory constant (Ki) was 3.8 ± 2 nM.
Take `CCNC(=O)[C@H]1O[C@@H](n2cnc3c(N)nc(C#CCC4CCC(C(=O)OCCN)CC4)nc32)C(O)C1O` (stereo in doubt) [JR-3033, 4-{3-[6-Amino-9-(5-ethylcarbamoyl-3,4-dihydroxy-tetrahydrofuran-2-yl)-9H-purin-2-yl]-prop-2-ynyl}-cyclohexanecarboxylic acid 2-amino-ethyl ester]: in the test with human neutrophils, the EC50 was 49 nM and the “PMN oxid + roli (-log EC50)” value turned out to be 8.67. Moreover, at human A1 AR, the affinity corresponds to a Ki of 15.1 ± 3.9 nM and the A1/A2A was 9.7. In addition, on A3 AR, the Ki is 26 ± 14 nM and the A3/A2A stood at 16.7. Further, the Ki in test [1] turned out to be 1.6 ± 0.02 nM.
`CCNC(=O)C1CCC(CC#Cc2nc(N)c3ncn([C@@H]4O[C@H](C(=O)NCC)C(O)C4O)c3n2)CC1` (stereo in doubt) [JR-3037, 5-{6-Amino-2-[3-(4-ethylcarbamoyl-cyclohexyl)-prop-1-ynyl]-purin-9-yl}-3,4-dihydroxytetrahydrofuran-2-carboxylic acid ethylamide]: in the test on human neutrophils, the concentration giving a half-maximal response (EC50) is 45.7 nM and the “PMN oxid + roli (-log EC50)” value is on record as 8.68. At human A1 AR, the Ki was 113 ± 11 nM and the A1/A2A came to 27.6. For the same compound, at A3 AR, the inhibitory constant (Ki) worked out at 93 ± 21 nM and the A3/A2A came out at 22.7. Also, the Ki in test [1] came to 4.1 ± 0.9 nM.
